Test results: ChEMBL document CHEMBL1955720 (Bioorg Med Chem, 2012); call rule not given here
pIC50, pKi: −log10 of the molar value.

Columns and labels:
RAW264.7 [1] = experiment: Antiinflammatory activity in mouse RAW264.7 cells assessed as inhibition of LPS-induced NO production at 40 uM preincubated for 30 mins measured 24 hrs post LPS challenge by Griess method; assay type: functional
HEK293 = experiment: Inhibition of TNF-alpha activated NF-kappaB expressed in HEK293 cells at 50 uM by luciferase reporter gene assay; assay type: cell-based
Aromatase [2] = biological target: T1, Aromatase (Homo sapiens, UniProt P11511)
T1 sequence (P11511 whole entry): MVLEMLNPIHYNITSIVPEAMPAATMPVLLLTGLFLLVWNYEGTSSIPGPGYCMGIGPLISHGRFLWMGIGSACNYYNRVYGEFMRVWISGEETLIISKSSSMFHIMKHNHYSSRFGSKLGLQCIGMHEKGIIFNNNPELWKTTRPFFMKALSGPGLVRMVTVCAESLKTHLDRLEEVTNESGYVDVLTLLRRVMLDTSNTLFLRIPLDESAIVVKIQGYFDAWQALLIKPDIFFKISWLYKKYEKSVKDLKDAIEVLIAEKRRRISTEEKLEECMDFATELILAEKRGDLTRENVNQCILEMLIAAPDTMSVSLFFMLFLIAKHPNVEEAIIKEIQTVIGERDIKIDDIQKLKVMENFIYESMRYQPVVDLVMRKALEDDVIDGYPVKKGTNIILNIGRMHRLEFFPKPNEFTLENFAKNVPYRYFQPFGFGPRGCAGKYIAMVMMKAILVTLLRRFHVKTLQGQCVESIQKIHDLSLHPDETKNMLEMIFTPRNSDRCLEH

Aromatase [3] = biological target: T1, Aromatase; remark: listed apart in the source
[4] = biological target: NAD(P)H dehydrogenase [quinone] 1 (Mus musculus) (UniProt Q64669); experiment: Induction of QR1 in mouse Hepa-1c1c7 cells assessed as concentration required to double QR1 induction by MTT assay; assay type: cell-based
Sequence of NAD(P)H dehydrogenase [quinone] 1 (Mus musculus) (Q64669 whole entry): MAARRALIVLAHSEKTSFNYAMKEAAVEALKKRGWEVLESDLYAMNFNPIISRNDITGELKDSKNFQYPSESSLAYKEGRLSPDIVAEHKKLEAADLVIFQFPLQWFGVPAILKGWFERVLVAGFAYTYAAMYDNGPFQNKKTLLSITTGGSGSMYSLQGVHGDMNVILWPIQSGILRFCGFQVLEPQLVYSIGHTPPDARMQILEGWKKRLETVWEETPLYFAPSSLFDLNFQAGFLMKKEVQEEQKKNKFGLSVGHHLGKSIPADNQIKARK

Aromatase [5] = biological target: T1, Aromatase; experiment: Inhibition of human aromatase using dibenzylfluorescein substrate at 20 uM after 30 mins by fluorescence assay; conditions: 0.5 h
[6] = biological target: NAD(P)H dehydrogenase [quinone] 1 (Mus musculus) (UniProt Q64669); experiment: Induction of QR1 in mouse Hepa-1c1c7 cells assessed as induction ratio at 50 uM by MTT assay; assay type: cell-based
[7] = Inhibition of TNF-alpha activated NF-kappaB expressed in HEK293 cells by luciferase reporter gene assay; assay type: cell-based
[8] = biological target: T2, Nitric oxide synthase, inducible (Mus musculus, UniProt P29477)
T2 sequence (P29477 whole entry): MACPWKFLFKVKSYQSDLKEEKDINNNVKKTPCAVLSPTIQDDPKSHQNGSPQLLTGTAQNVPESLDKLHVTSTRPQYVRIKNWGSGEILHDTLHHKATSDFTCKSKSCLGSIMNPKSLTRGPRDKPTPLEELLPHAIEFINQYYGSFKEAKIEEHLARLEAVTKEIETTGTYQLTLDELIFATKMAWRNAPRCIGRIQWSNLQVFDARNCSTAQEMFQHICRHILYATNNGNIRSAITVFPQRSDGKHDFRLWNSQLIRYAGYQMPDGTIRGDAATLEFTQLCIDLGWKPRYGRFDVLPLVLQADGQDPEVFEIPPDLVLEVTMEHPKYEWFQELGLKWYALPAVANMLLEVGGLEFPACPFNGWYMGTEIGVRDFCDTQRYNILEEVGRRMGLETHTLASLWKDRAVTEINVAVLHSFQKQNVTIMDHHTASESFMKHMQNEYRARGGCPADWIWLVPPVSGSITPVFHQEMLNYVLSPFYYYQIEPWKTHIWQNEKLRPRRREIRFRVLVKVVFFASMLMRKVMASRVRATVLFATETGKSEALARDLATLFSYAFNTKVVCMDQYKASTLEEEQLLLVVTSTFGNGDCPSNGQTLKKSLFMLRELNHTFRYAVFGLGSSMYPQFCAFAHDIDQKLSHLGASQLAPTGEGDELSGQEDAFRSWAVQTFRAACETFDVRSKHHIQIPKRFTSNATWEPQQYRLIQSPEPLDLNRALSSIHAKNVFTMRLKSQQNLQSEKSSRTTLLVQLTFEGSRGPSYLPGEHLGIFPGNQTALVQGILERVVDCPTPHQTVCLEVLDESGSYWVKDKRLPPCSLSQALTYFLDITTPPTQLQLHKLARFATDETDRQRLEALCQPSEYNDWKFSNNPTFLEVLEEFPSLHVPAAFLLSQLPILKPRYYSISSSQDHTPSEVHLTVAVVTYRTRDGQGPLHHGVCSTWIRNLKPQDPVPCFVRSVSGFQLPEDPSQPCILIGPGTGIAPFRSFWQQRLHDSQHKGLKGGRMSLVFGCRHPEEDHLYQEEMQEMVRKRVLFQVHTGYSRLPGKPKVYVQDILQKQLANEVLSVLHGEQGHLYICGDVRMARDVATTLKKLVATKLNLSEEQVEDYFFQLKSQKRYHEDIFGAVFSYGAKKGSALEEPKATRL
Description: Inhibition of iNOS in LPS-stimulated mouse RAW264.7 cells after 18 hrs

MCF7 = experiment: cells; conditions: Homo sapiens
Description: Cytotoxicity against human MCF7 cells by SRB assay

RAW264.7 [9] = experiment: Antiinflammatory activity in mouse RAW264.7 cells assessed as inhibition of LPS-induced NO production preincubated for 30 mins measured 24 hrs post LPS challenge by Griess method; assay type: functional, cell-based

Row | SMILES | pKi (Aromatase [2]) | pIC50 (Aromatase [3]) | CD [4] [µM] | inhibition (INH) (Aromatase [5]) | Ratio [6] | pIC50 [7] | pIC50 [8] | pIC50 (MCF7) | pIC50 (RAW264.7 [9]) | inhibition at 40 µM (RAW264.7 [1]) [%] | inhibition (HEK293) [%]
1 | Fc1ccc(-c2nc(-c3cccnc3)cs2)cc1 | – | – | – | – | – | – | – | – | – | 54.6 | 28.8
2 | Brc1ccc(-c2nc(-c3cccnc3)cs2)cc1 | 5.76 | 5.10 | 32.8 | – | 4.27 | 4.70 | – | – | – | 72.5 | 46.8
3 | COc1ccc(-c2csc(-c3ccncc3)n2)cn1 | – | – | – | – | – | – | – | – | – | 32.1 | 6
4 | Clc1ccc(-c2nc(-c3cccnc3)cs2)cc1 | – | – | 32 | – | – | 4.99 | – | – | – | 76.3 | 54
5 | Oc1ccc(/C=C/c2cc(O)cc(O)c2)cc1 [RESVERATROL] | – | – | – | – | – | – | 4.63 | 4.06 | – | – | –
6 | COc1cc(-c2nc(-c3cccnc3)cs2)ccn1 | 9.19 | 7.64 | – | – | 0.7 | – | – | – | 4.32 | 54.7 | -4.9
7 | COc1ccc(-c2csc(-c3cccnc3)n2)cn1 | – | – | – | – | – | – | – | – | – | 16.3 | –
8 | Clc1cc(-c2nc(-c3cccnc3)cs2)ccn1 | – | – | – | – | – | – | – | – | – | -5.2 | –

Second part, led by results:

Row | pKi (Aromatase [2]) | pIC50 (Aromatase [3]) | CD [4] [µM] | inhibition (INH) (Aromatase [5]) | Ratio [6] | pIC50 [7] | pIC50 [8] | pIC50 (MCF7) | pIC50 (RAW264.7 [9]) | SMILES | inhibition at 40 µM (RAW264.7 [1]) [%] | inhibition (HEK293) [%]
9 | 5.83 | 5.13 | 20.1 | Active | 5.1 | – | – | – | – | Brc1ccc(-c2csc(-c3cccnc3)n2)cn1 | 22.7 | 16.4
10 | 6.55 | 5.57 | – | Active | 1.5 | – | – | – | – | Brc1ccc(-c2csc(-c3ccncc3)n2)cn1 | 8.6 | –
11 | 4.82 | 4.74 | – | – | 1.1 | – | – | – | – | COc1ccc(-c2nc(-c3cccnc3)cs2)cc1 | 48.3 | 59.9
12 | 5.59 | 4.95 | – | – | 0.87 | – | – | – | – | Oc1ccc(-c2nc(-c3cccnc3)cs2)cc1 | 35.7 | 52.9
13 | 7.20 | 6.05 | – | – | 1.45 | 4.75 | – | – | – | c1ccc(-c2nc(-c3cccnc3)cs2)cc1 | 60.1 | 50.3
14 | 5.94 | 5.17 | 0.06 | – | 9.2 | – | – | – | – | Brc1cccc(-c2nc(-c3cccnc3)ns2)c1 | – | 12.9
15 | – | – | – | – | – | 5.59 | – | – | – | c1cncc(-c2csc(-c3ccncc3)n2)c1 | – | 68.8
16 | 7.00 | 5.87 | – | Active | 1.1 | – | – | – | – | CCOc1ccc(-c2csc(-c3ccncc3)n2)cn1 | 28.1 | -2.4
17 | – | – | 0.08 | – | – | – | – | – | – | COc1cccc(-c2nc(-c3cccnc3)ns2)c1 | – | 22.4
